Experimental data reported in US8158792B2, “Spiropiperidines for use as tryptase inhibitors” (Janssen Pharmaceutica N.V., priority 2007, dated 2012).

Biological target: human lung tryptase
Test: β-Tryptase In-Vitro Enzyme Assay
Type: biochemical
Settings: human lung tryptase 1 nM, substrate H-D-HHT-Ala-Arg-pNa 500 μM, pH 7.4, room temperature
Procedure: The β-tryptase assay was conducted with human lung tryptase (Cortex Biochem #CP3033) in an aqueous buffer (10 mM Tris, 10 mM Hepes, 150 mM NaCl, 0.1% PEG 8000, pH 7.4) using the chromogenic substrate H-D-HHT-Ala-Arg-pNa. […] Percent inhibition was calculated by comparing the initial reaction velocity of samples without inhibitor to those with inhibitor. The initial reaction velocities were analyzed using Microsoft Excel.

Compound | IC50
CN(C)c1cccc(C(=O)N2CCC3(CC2)COc2ccc(CN)cc23)c1 [Cpd 56, 1-(3-dimethylamino-phenyl)carbonyl-5′-aminomethyl-spiro[piperidine-4,3′-(2H)-benzo[b]furan]] | 190 nM
NCc1ccc2c(c1)C1(CCN(C(=O)c3csc(-c4cccnc4)n3)CC1)CO2 [Cpd 121, 1-(2-pyridin-3-yl-thiazol-4-yl)carbonyl-5′-aminomethyl-spiro[piperidine-4,3′-(2H)-benzo[b]furan]] | 510 nM
NCc1ccc2c(c1)C1(CCN(C(=O)c3ccc(F)c(F)c3)CC1)CO2 [Cpd 26, 1-(3,4-difluoro-phenyl)carbonyl-5′-aminomethyl-spiro[piperidine-4,3′-(2H)-benzo[b]furan]] | 230 nM
CCSc1sc(C(=O)N2CCC3(CC2)COc2ccc(CN)cc23)c2c1C(=O)CC(C)(C)C2 [Cpd 223, 1-(3-ethylthio-4-oxo-6,6-dimethyl-6,7-dihydro-5H-benzo[c]thien-1-yl)carbonyl-5′-aminomethyl-spiro[piperidine-4,3′-(2H)-benzo[b]furan]] | 21 nM
NCc1ccc2c(c1)C1(CCN(C(=O)c3c[nH]c4ccccc34)CC1)CO2 [Cpd 236, 1-indol-3-ylcarbonyl-5′-aminomethyl-spiro[piperidine-4,3′-(2H)-benzo[b]furan]] | 750 nM
NCc1ccc2c(c1)C1(CCN(C(=O)/C(=C/c3ccccc3)c3ccccc3)CC1)CO2 [Cpd 190, (E)-1-(1-phenyl-2-phenylethenyl)carbonyl-5′-aminomethyl-spiro[piperidine-4,3′-(2H)-benzo[b]furan]] | 590 nM
NCc1ccc2c(c1)C1(CCN(C(=O)c3sc4cccc(Cl)c4c3Cl)CC1)CO2 [Cpd 175, 1-(3,4-dichloro-benzo[b]thien-2-yl)carbonyl-5′-aminomethyl-spiro[piperidine-4,3′-(2H)-benzo[b]furan]] | 58 nM
CSc1sc(C(=O)N2CCC3(CC2)COc2ccc(CN)cc23)c2ccccc12 [Cpd 234, 1-(3-methylthio-benzo[c]thien-1-yl)carbonyl-5′-aminomethyl-spiro[piperidine-4,3′-(2H)-benzo[b]furan]] | 9.5 nM
COc1ccc(C(=O)N2CCC3(CC2)COc2ccc(CN)cc23)cc1 [Cpd 54, 1-(4-methoxy-phenyl)carbonyl-5′-aminomethyl-spiro[piperidine-4,3′-(2H)-benzo[b]furan]] | 750 nM
Cc1cccc(CC(=O)N2CCC3(CC2)COc2ccc(CN)cc23)c1 [Cpd 89, 1-(3-methyl-benzyl)carbonyl-5′-aminomethyl-spiro[piperidine-4,3′-(2H)-benzo[b]furan]] | 1400 nM
COc1ccccc1/C=C/C(=O)N1CCC2(CC1)COc1ccc(CN)cc12 [Cpd 194, (E)-1-(2-methoxy-phenylethenyl)carbonyl-5′-aminomethyl-spiro[piperidine-4,3′-(2H)-benzo[b]furan]] | 150 nM
CCCCSc1sc(C(=O)N2CCC3(CC2)COc2ccc(CN)cc23)c2c1C(=O)CCC2 [Cpd 229, 1-(3-butylthio-4-oxo-5,6,7-trihydro-4H-benzo[c]thien-1-yl)carbonyl-5′-aminomethyl-spiro[piperidine-4,3′-(2H)-benzo[b]furan]] | 5.3 nM
NCc1ccc2c(c1)C1(CCN(C(=O)c3ccc(C(=O)c4ccccc4)cc3)CC1)CO2 [Cpd 6, 1-(4-benzoyl-phenyl)carbonyl-5′-aminomethyl-spiro[piperidine-4,3′-(2H)-benzo[b]furan]] | 5800 nM
NCc1ccc2c(c1)C1(CCN(C(=O)c3ccc(Cn4cnc5ccccc54)cc3)CC1)CO2 [Cpd 10, 1-(4-benzoimidazol-1-ylmethyl-phenyl)carbonyl-5′-aminomethyl-spiro[piperidine-4,3′-(2H)-benzo[b]furan]] | 3000 nM
NCc1ccc2c(c1)C1(CCN(C(=O)c3ccc(-c4ccccc4)s3)CC1)CO2 [Cpd 114, 1-(5-phenyl-thien-2-yl)carbonyl-5′-aminomethyl-spiro[piperidine-4,3′-(2H)-benzo[b]furan]] | 240 nM
NCc1ccc2c(c1)C1(CCN(C(=O)c3ccc(CCl)cc3)CC1)CO2 [Cpd 69, 1-(4-chloromethyl-phenyl)carbonyl-5′-aminomethyl-spiro[piperidine-4,3′-(2H)-benzo[b]furan]] | 1600 nM
Cc1ccccc1Oc1cccc(CC(=O)N2CCC3(CC2)COc2ccc(CN)cc23)c1 [Cpd 208, 1-[3-(2-methyl-phenoxy)-benzyl]carbonyl-5′-aminomethyl-spiro[piperidine-4,3′-(2H)-benzo[b]furan]] | 12 nM

Further lines, results first:

IC50 | Compound
150 nM | C[SH]1C=C(C(F)(F)F)C2=C1NN(C(=O)N1CCC3(CC1)COc1ccc(CN)cc13)C2 (stereo not drawn) [Cpd 276, 1-(4-trifluoromethyl-6-methyl-1H-thieno[2,3-c]pyrazol-2-yl)carbonyl-5′-aminomethyl-spiro[piperidine-4,3′-(2H)-benzo[b]furan]]
210 nM | COc1ccc2[nH]cc(C(=O)N3CCC4(CC3)COc3ccc(CN)cc34)c2c1 [Cpd 238, 1-(5-methoxy-indol-3-yl)carbonyl-5′-aminomethyl-spiro[piperidine-4,3′-(2H)-benzo[b]furan]]
1000 nM | NCc1ccc2c(c1)C1(CCN(C(=O)c3cccc4c3Cc3ccccc3-4)CC1)CO2 [Cpd 269, 1-fluoren-1-ylcarbonyl-5′-aminomethyl-spiro[piperidine-4,3′-(2H)-benzo[b]furan]]
20 nM | NCc1ccc2c(c1)C1(CCN(C(=O)c3ccc(C#Cc4ccccc4)o3)CC1)CN2C(=O)CS(=O)(=O)O [Cpd 335, 1-(5-phenylethynyl-furan-2-yl)carbonyl-1′-(hydroxysulfonylmethyl)carbonyl-5′-aminomethyl-spiro[piperidine-4,3′-(2H)-indole]]
360 nM | NCc1ccc2c(c1)C1(CCN(C(=O)c3cc4ccccc4[nH]3)CC1)CO2 [Cpd 285, 1-1H-indol-2-ylcarbonyl-5′-aminomethyl-spiro[piperidine-4,3′-(2H)-benzo[b]furan]]
3.7 nM | CCCOc1sc(C(=O)N2CCC3(CC2)COc2ccc(CN)cc23)c(C)c1Br [Cpd 303, 1-(3-methyl-4-bromo-5-propoxy-thien-2-yl)carbonyl-5′-aminomethyl-spiro[piperidine-4,3′-(2H)-benzo[b]furan]]
30 nM | O=CNCc1ccc2c(c1)C1(CCN(C(=O)c3ccc(C#Cc4ccccc4)o3)CC1)CO2 [Cpd 304, 1-(5-phenylethynyl-furan-2-yl)carbonyl-5′-formylaminomethyl-spiro[piperidine-4,3′-(2H)-benzo[b]furan]]
6100 nM | NCc1ccc2c(c1)C1(CCN(C(=O)C3c4ccccc4Oc4ccccc43)CC1)CO2 [Cpd 292, 1-9H-xanthen-9-ylcarbonyl-5′-aminomethyl-spiro[piperidine-4,3′-(2H)-benzo[b]furan]]
910 nM | NCc1ccc2c(c1)C1(CCN(C(=O)c3cc4ccccc4n3S(=O)(=O)c3ccccc3)CC1)CO2 [Cpd 283, 1-(1-phenylsulfonyl-1H-indol-2-yl)carbonyl-5′-aminomethyl-spiro[piperidine-4,3′-(2H)-benzo[b]furan]]
17 nM | CSc1cc(-c2ccc(Cl)cc2)c(C(=O)N2CCC3(CC2)COc2ccc(CN)cc23)s1 [Cpd 299, 1-[3-(4-chloro-phenyl)-5-methylthio-thien-2-yl]carbonyl-5′-aminomethyl-spiro[piperidine-4,3′-(2H)-benzo[b]furan]]
